Peptide text beside a SMILES is read from it.
How the values were obtained:
HDAC5 protein = molecular target: T1, HDAC5 protein (Homo sapiens, UniProt Q9UQL6); assay: Biacore T200 binding affinity to immobilised HDAC5 protein; conditions: CM5 chip, 1:1 binding model; for kon: read-out: ka
T1 construct: purchased Abcam
Description: For this purpose, HDAC5 protein (Abcam, MA, USA) was dissolved in sodium acetate buffer (pH 4.5), and was bound to a dextran-covered sensor chip surface (CM5 chip) using N-hydroxysuccinimide (NHS) and N-ethyl-N0-(3-dimethylaminopropyl)-carbodiimide hydrochloride (EDAC) as crosslinkers. The unreacted active group of dextran was blocked by the addition of ethanolamine (1M) thereto. The number of HDAC5 binding to the chip was measured as 4440RU (1000 RU=1 ng/mm^2). […] Rate constants for association (ka) and dissociation (kd), and a dissociation constant (KD) were calculated using BIAevaluation software and a 1:1 binding model.

[1] = tested on: collagen-induced arthritis (CIA) rats; assay: Collagen-induced arthritis animal model; assay type: in vivo, Wistar rats
Description: In order to determine whether or not the peptide according to the present invention is effective in treating rheumatoid arthritis in vivo, the effect of treating arthritis thereof was detected in a collagen-induced arthritis animal model. For this purpose, female Wistar rats (105-135 g, n=67) were purchased from Harlan Co. Ltd. (Indianapolis, IN, USA). All rats were bred in a pathogen-free environment and sterilized standard rat feed (Harlan Co. Ltd, USA) and water were freely fed to the rats. Animal experiments were conducted with the approval of the Institutional Animal Care and Use Committee (IACUC) of Seoul National University. Collagen-induced arthritis was induced in a known manner (Nishikawa et al., Arthritis and rheumatism. 2003; 48:2670-81).
Specifically, 500 μg of bovine collagen type II was injected along with a mixture of 0.5 mL of 0.1 M acetic acid and 0.5 mL of Freund's incomplete adjuvant into rat muscle. On the 7th day, 0.5 mL of 0.1 M acetic acid and 0.5 mL of Freund's incomplete adjuvant were further inoculated along with 250 μg of bovine collagen type II to produce collagen-induced arthritis (CIA) rats. The rats were classified into a CIA-induced group (n=10), a CIA-induced group injected with a low concentration of the peptide of SEQ ID NO: 1 (LD AIP, 15 mg/kg, n=10), a CIA-induced group injected with a high concentration of the peptide of SEQ ID NO: 1 (HD AIP, 30 mg/kg, n=10), a CIA-induced group injected with etanercept (Enbrel) (10 mg/kg, n=10), and a normal group (n=6). From 28 days after the first collagen injection, the peptide of SEQ ID NO: 1 was injected subcutaneously into the back of the neck twice a week over 4 weeks. Etanercept was injected intraperitoneally three times a week over 4 weeks. Swelling of both hind paws was measured twice using a plethysmometer (LE7500 N, IWOO Scientific Corporation, KOREA) on day 22, 29, 31, 35, 38, 42, 45, 49, 52, and 56. The plethysmometer was used after calibration to a weight of 3 mL. The measured area was marked by drawing a line, and measurement was conducted adjacent to the ankle. Hind paw swelling increase (%) and hind paw swelling inhibition (%) were calculated using the following equations.
In order to observe the degree of bone damage in the hind paw, microcomputed tomography (micro-CT) was performed using a SkyScan 1172 (SkyScan, Aartselaar, Belgium). The total volume (TV; mm^3), bone volume (BV; mm^3) and bone volume fraction (BV/TV; %) were analyzed using CTAn software. On the 57th day, rats were sacrificed and subjected to histological analysis. Both hind paws and joints were collected, fixed in 10% buffered formalin, and demineralized in 30% citrate-buffered formic acid at 4° ° C. for 3 days. Paraffin blocks were produced, sliced into sections with a thickness of 4 μm and stained with hematoxylin and eosin (H&E), and then the pathological score was evaluated with an optical microscope. The joint inflammation index was measured based on the following criteria (Shiozawa et al., J Clin Invest. 1997; 99 (6):1210-1216). 0, normal synovium; 1, synovial membrane hypertrophy and cell infiltrates; 2, pannus and cartilage erosion; 3, major erosion of cartilage and subchondral bone; and 4, loss of joint integrity and ankylosis.
The rats were sacrificed and systemic blood was collected, and the concentrations of TNF-α and IL-6 in the blood were measured with an ELISA kit (R&D, Minneapolis, MN, USA).

T1 sequence (Q9UQL6 whole entry, species assumed): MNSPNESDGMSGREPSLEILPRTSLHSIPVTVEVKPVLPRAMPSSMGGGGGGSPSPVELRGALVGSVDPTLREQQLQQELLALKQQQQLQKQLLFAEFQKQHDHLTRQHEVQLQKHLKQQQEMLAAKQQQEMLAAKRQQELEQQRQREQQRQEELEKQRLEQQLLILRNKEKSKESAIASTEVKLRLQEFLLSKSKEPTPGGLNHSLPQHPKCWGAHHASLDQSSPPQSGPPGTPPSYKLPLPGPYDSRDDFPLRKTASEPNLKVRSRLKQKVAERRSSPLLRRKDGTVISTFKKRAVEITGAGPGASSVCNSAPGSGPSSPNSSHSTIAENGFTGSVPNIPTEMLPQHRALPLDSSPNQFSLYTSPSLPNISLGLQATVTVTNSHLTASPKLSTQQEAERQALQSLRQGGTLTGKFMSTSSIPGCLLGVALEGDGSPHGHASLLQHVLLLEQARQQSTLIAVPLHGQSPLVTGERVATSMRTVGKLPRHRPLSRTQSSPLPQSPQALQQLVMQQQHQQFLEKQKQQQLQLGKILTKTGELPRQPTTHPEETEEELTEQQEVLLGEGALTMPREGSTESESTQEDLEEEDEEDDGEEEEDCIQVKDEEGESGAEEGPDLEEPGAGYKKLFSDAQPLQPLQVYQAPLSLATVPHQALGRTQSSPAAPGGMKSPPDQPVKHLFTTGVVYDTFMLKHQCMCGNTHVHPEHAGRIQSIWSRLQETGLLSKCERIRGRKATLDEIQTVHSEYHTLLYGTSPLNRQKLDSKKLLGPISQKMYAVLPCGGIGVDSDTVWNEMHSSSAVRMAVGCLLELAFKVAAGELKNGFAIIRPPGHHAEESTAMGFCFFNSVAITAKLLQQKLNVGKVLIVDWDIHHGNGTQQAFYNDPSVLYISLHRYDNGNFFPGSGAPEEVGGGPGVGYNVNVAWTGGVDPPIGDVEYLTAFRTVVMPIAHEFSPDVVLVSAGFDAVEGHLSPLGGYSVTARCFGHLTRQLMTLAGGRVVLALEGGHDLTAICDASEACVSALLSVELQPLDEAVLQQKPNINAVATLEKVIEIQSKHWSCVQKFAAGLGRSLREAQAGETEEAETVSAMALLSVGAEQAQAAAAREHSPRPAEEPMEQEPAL

Compound | kd (HDAC5 protein) [s⁻¹] | kon (HDAC5 protein) [M⁻¹ s⁻¹] | Kd (HDAC5 protein) [nM] | other results
CSCC[C@H](NC(=O)[C@H](CS)NC(=O)[C@H](CCCCN)NC(=O)[C@H](CCCNC(=N)N)NC(=O)CNC(=O)[C@H](CCCNC(=N)N)NC(=O)[C@@H](NC(=O)[C@H](CO)NC(=O)[C@H](CS)NC(=O)[C@H](CCCCN)NC(=O)CN)[C@@H](C)O)C(=O)N[C@@H](CCCNC(=N)N)C(=O)N[C@@H](CCCNC(=N)N)C(=O)N[C@@H](CCCCN)C(=O)N[C@@H](CCCCN)C(=O)O [SEQ ID NO: 2] (H-GKCSTRGRKCMRRKK-OH; N-terminus and C-terminus assumed) | 0.06872 | 74400 | – | –
CSCC[C@H](NC(=O)[C@H](CCCCN)NC(=O)[C@H](CCCNC(=N)N)NC(=O)CNC(=O)[C@H](CCCNC(=N)N)NC(=O)[C@@H](NC(=O)[C@H](CO)NC(=O)[C@H](CS)NC(=O)[C@H](CCCCN)NC(=O)CN)[C@@H](C)O)C(=O)N[C@@H](CS)C(=O)N[C@@H](CCCNC(=N)N)C(=O)N[C@@H](CCCNC(=N)N)C(=O)N[C@@H](CCCCN)C(=O)N[C@@H](CCCCN)C(=O)O [SEQ ID NO: 3] (H-GKCSTRGRKMCRRKK-OH; N-terminus and C-terminus assumed) | 0.05953 | 82100 | – | –
CSCC[C@H](NC(=O)[C@H](CCCCN)NC(=O)[C@H](CCCNC(=N)N)NC(=O)CNC(=O)[C@H](CCCNC(=N)N)NC(=O)[C@@H](NC(=O)[C@H](CO)NC(=O)[C@H](CS)NC(=O)[C@H](CCCCN)NC(=O)CN)[C@@H](C)O)C(=O)N[C@@H](CCSC)C(=O)N[C@@H](CCCNC(=N)N)C(=O)N[C@@H](CCCNC(=N)N)C(=O)N[C@@H](CCCCN)C(=O)N[C@@H](CCCCN)C(=O)O [SEQ ID NO: 4] (H-GKCSTRGRKMMRRKK-OH; N-terminus and C-terminus assumed) | 0.06788 | 72200 | 940 | –
CSCC[C@H](NC(=O)[C@H](CCCCN)NC(=O)CN)C(=O)N[C@@H](CO)C(=O)N[C@H](C(=O)N[C@@H](CCCNC(=N)N)C(=O)NCC(=O)N[C@@H](CCCNC(=N)N)C(=O)N[C@@H](CCCCN)C(=O)N[C@@H](CS)C(=O)N[C@@H](CS)C(=O)N[C@@H](CCCNC(=N)N)C(=O)N[C@@H](CCCNC(=N)N)C(=O)N[C@@H](CCCCN)C(=O)N[C@@H](CCCCN)C(=O)O)[C@@H](C)O [SEQ ID NO: 5] (H-GKMSTRGRKCCRRKK-OH; N-terminus and C-terminus assumed) | 0.03088 | 65900 | – | –
CSCC[C@H](NC(=O)[C@H](CCCCN)NC(=O)CN)C(=O)N[C@@H](CO)C(=O)N[C@H](C(=O)N[C@@H](CCCNC(=N)N)C(=O)NCC(=O)N[C@@H](CCCNC(=N)N)C(=O)N[C@@H](CCCCN)C(=O)N[C@@H](CCSC)C(=O)N[C@@H](CS)C(=O)N[C@@H](CCCNC(=N)N)C(=O)N[C@@H](CCCNC(=N)N)C(=O)N[C@@H](CCCCN)C(=O)N[C@@H](CCCCN)C(=O)O)[C@@H](C)O [SEQ ID NO: 6] (H-GKMSTRGRKMCRRKK-OH; N-terminus and C-terminus assumed) | 0.04463 | 100000 | 444 | –
CSCC[C@H](NC(=O)[C@H](CCCCN)NC(=O)CN)C(=O)N[C@@H](CO)C(=O)N[C@H](C(=O)N[C@@H](CCCNC(=N)N)C(=O)NCC(=O)N[C@@H](CCCNC(=N)N)C(=O)N[C@@H](CCCCN)C(=O)N[C@@H](CS)C(=O)N[C@@H](CCSC)C(=O)N[C@@H](CCCNC(=N)N)C(=O)N[C@@H](CCCNC(=N)N)C(=O)N[C@@H](CCCCN)C(=O)N[C@@H](CCCCN)C(=O)O)[C@@H](C)O [SEQ ID NO: 7] (H-GKMSTRGRKCMRRKK-OH; N-terminus and C-terminus assumed) | 0.04757 | 67500 | 704 | –
CSCC[C@H](NC(=O)[C@H](CCCCN)NC(=O)CN)C(=O)N[C@@H](CO)C(=O)N[C@H](C(=O)N[C@@H](CCCNC(=N)N)C(=O)NCC(=O)N[C@@H](CCCNC(=N)N)C(=O)N[C@@H](CCCCN)C(=O)N[C@@H](CCSC)C(=O)N[C@@H](CCSC)C(=O)N[C@@H](CCCNC(=N)N)C(=O)N[C@@H](CCCNC(=N)N)C(=O)N[C@@H](CCCCN)C(=O)N[C@@H](CCCCN)C(=O)O)[C@@H](C)O [SEQ ID NO: 8] (H-GKMSTRGRKMMRRKK-OH; N-terminus and C-terminus assumed) | 0.004776 | 55000 | 86.8 | –
etanercept [reference compound] | – | – | – | Concentration of IL-6 in blood ([1]; ELISA, high concentration of peptide or etanercept, CIA-induced group 109 pg/ml): 24 pg/mL; Concentration of TNF-α in blood ([1]; ELISA, high concentration of peptide or etanercept, CIA-induced group 128 pg/ml): 39 pg/mL; Microscopic observation of joint tissues (inflammation, H&E) ([1]; FIG. 4A): results similar to the CIA-induced group injected with a low concentration of SEQ ID NO: 1; Hind paw swelling inhibition (%) ([1]; etanercept 10 mg/kg intraperitoneally): 37%; Hind paw swelling (%) ([1]; peptide 15 or 30 mg/kg subcutaneously twice a week, etanercept 10 mg/kg intraperitoneally three times a week, 4 weeks): decreased hind paw swelling (%) within 35 to 56 days (P<0.05); Inflammation index ([1]; score 0-4, CIA-induced group 3.3±0.67): 2.3±1.16

From patent publication US12486303B2, “Use of peptide for inhibiting functions and expressions of multiple disease biomarkers” (NIBEC CO., LTD., priority 2018, dated 2025)
